pIC50: −log10 of the molar value.
Test system: 186277-243-T-J2-PDC multi-cell spheroid viability
Experiment: Anticancer human tumor 186277-243-T-J2-PDC patient-derived colon adenocarcinoma cell line growth inhibition [PI3K]
Conditions: for pIC50: curve of first compound; for viability, T/C: stronger effect = lower value
Summary of the method: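 High-throughput combination screen: PI3K inhibitors crossed with targeted small molecules on complex spheroids of tumor cells, HUVEC and MSCs at 37 degrees C, 5% CO2. Top concentration was at or near clinical Cmax (otherwise 10 microM), with half-log decrements.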

[1] = second compound 0.0316 µM, first compound 0.0316 µM
[2] = second compound 0.0316 µM, first compound 0.1 µM
[3] = second compound 0.0316 µM, first compound 0.316 µM
[4] = second compound 0.0316 µM, first compound 1 µM
[5] = second compound 0.0316 µM, first compound 3.16 µM
[6] = second compound 0.0316 µM, first compound 10 µM
[7] = second compound 0.1 µM, first compound 0.0316 µM
[8] = second compound 0.1 µM, first compound 0.1 µM
[9] = second compound 0.1 µM, first compound 0.316 µM
[10] = second compound 0.1 µM, first compound 1 µM
[11] = second compound 0.1 µM, first compound 3.16 µM
[12] = second compound 0.1 µM, first compound 10 µM
[13] = second compound 0.316 µM, first compound 0.0316 µM
[14] = second compound 0.316 µM, first compound 0.1 µM
[15] = second compound 0.316 µM, first compound 0.316 µM
[16] = second compound 0.316 µM, first compound 1 µM
[17] = second compound 0.316 µM, first compound 3.16 µM
[18] = second compound 0.316 µM, first compound 10 µM
[19] = second compound 1 µM, first compound 0.0316 µM
[20] = second compound 1 µM, first compound 0.1 µM
[21] = second compound 1 µM, first compound 0.316 µM
[22] = second compound 1 µM, first compound 1 µM
[23] = second compound 1 µM, first compound 3.16 µM
[24] = second compound 1 µM, first compound 10 µM
[25] = second compound 0.00316 µM, first compound 0.0316 µM
[26] = second compound 0.00316 µM, first compound 0.1 µM
[27] = second compound 0.00316 µM, first compound 0.316 µM
[28] = second compound 0.00316 µM, first compound 1 µM
[29] = second compound 0.01 µM, first compound 0.0316 µM
[30] = second compound 0.01 µM, first compound 0.1 µM
[31] = second compound 0.01 µM, first compound 0.316 µM
[32] = second compound 0.01 µM, first compound 1 µM
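Note: spheroids exposed to compounds for seven days before viability reading.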
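Throughout, for viability, T/C: 100% = DMSO vehicle control viability.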

CC(C)NCC(C(=O)N1CCN(c2ncnc3c2C(C)CC3O)CC1)c1ccc(Cl)cc1 (stereo not drawn) + CC(Nc1ncnc2nc[nH]c12)c1cc2cccc(Cl)c2c(=O)n1-c1ccccc1
pIC50 (second compound 0.0316 µM): 5.64 | pIC50 (second compound 0.1 µM): 5.97 | pIC50 (second compound 0.316 µM): 5.95 | pIC50 (second compound 1 µM): 6.09 | pIC50 (second compound 3.16 µM): 6.27 | pIC50 (second compound 10 µM): 6.33 | viability, T/C [1]: 90.7% | viability, T/C [2]: 78.6% | viability, T/C [3]: 80.1% | viability, T/C [4]: 60.4% | viability, T/C [5]: 45.4% | viability, T/C [6]: 31.2% | viability, T/C [7]: 82.5% | viability, T/C [8]: 94% | viability, T/C [9]: 70.5% | viability, T/C [10]: 50% | viability, T/C [11]: 40.1% | viability, T/C [12]: 28.2% | viability, T/C [13]: 85.6% | viability, T/C [14]: 92.2% | viability, T/C [15]: 68.8% | viability, T/C [16]: 48.9% | viability, T/C [17]: 42.5% | viability, T/C [18]: 26.3% | viability, T/C [19]: 96.7% | viability, T/C [20]: 77.5% | viability, T/C [21]: 63.8% | viability, T/C [22]: 49.6% | viability, T/C [23]: 30% | viability, T/C [24]: 23% | viability, T/C (second compound 3.16 µM, first compound 0.0316 µM): 96.5% | viability, T/C (second compound 3.16 µM, first compound 0.1 µM): 92.8% | viability, T/C (second compound 3.16 µM, first compound 0.316 µM): 58.7% | viability, T/C (second compound 3.16 µM, first compound 1 µM): 36.8% | viability, T/C (second compound 3.16 µM, first compound 3.16 µM): 30.9% | viability, T/C (second compound 3.16 µM, first compound 10 µM): 17.6% | viability, T/C (second compound 10 µM, first compound 0.0316 µM): 77.3% | viability, T/C (second compound 10 µM, first compound 0.1 µM): 78.8% | viability, T/C (second compound 10 µM, first compound 0.316 µM): 54.2% | viability, T/C (second compound 10 µM, first compound 1 µM): 36.3% | viability, T/C (second compound 10 µM, first compound 3.16 µM): 21.4% | viability, T/C (second compound 10 µM, first compound 10 µM): 14.4%

Cn1ncc(Cl)c1-c1cc(C(=O)NC(CN)Cc2cccc(F)c2)sc1Cl (stereo not drawn)
viability, T/C (compound 0.0316 µM): 89.1% [middle of 4 runs] | viability, T/C (compound 0.1 µM): 85% [middle of 4 runs] | viability, T/C (compound 0.316 µM): 60.5% [middle of 4 runs] | viability, T/C (compound 1 µM): 45.4% [middle of 4 runs] | viability, T/C (compound 3.16 µM): 46.1% [middle of 4 runs] | viability, T/C (compound 10 µM): 19.8% [middle of 4 runs] | IC50 (curve of compound): 1.17 µM [middle of 4 runs]

CCN1CCN(Cc2ccc(Nc3ncc(F)c(-c4cc(F)c5nc(C)n(C(C)C)c5c4)n3)nc2)CC1 + CC(Nc1ccc2c(c1)OCCn1cc(N3C(=O)OCC3C(F)F)nc1-2)C(N)=O
pIC50 (second compound 0.00316 µM): < 6.00 | pIC50 (second compound 0.01 µM): < 6.00 | pIC50 (second compound 0.0316 µM): < 6.00 | pIC50 (second compound 0.1 µM): < 6.00 | pIC50 (second compound 0.316 µM): 7.39 | pIC50 (second compound 1 µM): > 8.50 | viability, T/C (second compound 0.00316 µM, first compound 0.00316 µM): 99.4% | viability, T/C (second compound 0.00316 µM, first compound 0.01 µM): 94.3% | viability, T/C [25]: 102% | viability, T/C [26]: 143% | viability, T/C [27]: 165% | viability, T/C [28]: 128% | viability, T/C (second compound 0.01 µM, first compound 0.00316 µM): 124% | viability, T/C (second compound 0.01 µM, first compound 0.01 µM): 85% | viability, T/C [29]: 106% | viability, T/C [30]: 132% | viability, T/C [31]: 142% | viability, T/C [32]: 133% | viability, T/C (second compound 0.0316 µM, first compound 0.00316 µM): 98.9% | viability, T/C (second compound 0.0316 µM, first compound 0.01 µM): 93.3% | viability, T/C [1]: 107% | viability, T/C [2]: 113% | viability, T/C [3]: 124% | viability, T/C [4]: 103% | viability, T/C (second compound 0.1 µM, first compound 0.00316 µM): 105% | viability, T/C (second compound 0.1 µM, first compound 0.01 µM): 95.1% | viability, T/C [7]: 83% | viability, T/C [8]: 81.8% | viability, T/C [9]: 75.9% | viability, T/C [10]: 62.5% | viability, T/C (second compound 0.316 µM, first compound 0.00316 µM): 67.6% | viability, T/C (second compound 0.316 µM, first compound 0.01 µM): 74.8% | viability, T/C [13]: 52.5% | viability, T/C [14]: 42.8% | viability, T/C [15]: 42.5% | viability, T/C [16]: 36.2% | viability, T/C (second compound 1 µM, first compound 0.00316 µM): 37.3% | viability, T/C (second compound 1 µM, first compound 0.01 µM): 37.8% | viability, T/C [19]: 28.3% | viability, T/C [20]: 28% | viability, T/C [21]: 31% | viability, T/C [22]: 24.5%

CNC(=O)c1ccc(N2C(=S)N(c3ccc(C#N)c(C(F)(F)F)c3)C(=O)C2(C)C)cc1F + COc1c(OCCCN2CCOCC2)ccc2c3n(c(=NC(=O)c4cnc(N)nc4)nc12)CCN3
pIC50 (second compound 0.00316 µM): < 5.00 | pIC50 (second compound 0.01 µM): < 5.00 | pIC50 (second compound 0.0316 µM): < 5.00 | pIC50 (second compound 0.1 µM): > 7.50 | pIC50 (second compound 0.316 µM): > 7.50 | pIC50 (second compound 1 µM): > 7.50 | viability, T/C [25]: 110% | viability, T/C [26]: 113% | viability, T/C [27]: 111% | viability, T/C [28]: 88.2% | viability, T/C (second compound 0.00316 µM, first compound 3.16 µM): 112% | viability, T/C (second compound 0.00316 µM, first compound 10 µM): 107% | viability, T/C [29]: 98.8% | viability, T/C [30]: 121% | viability, T/C [31]: 103% | viability, T/C [32]: 94.8% | viability, T/C (second compound 0.01 µM, first compound 3.16 µM): 112% | viability, T/C (second compound 0.01 µM, first compound 10 µM): 115% | viability, T/C [1]: 88.9% | viability, T/C [2]: 85.6% | viability, T/C [3]: 81.3% | viability, T/C [4]: 81.7% | viability, T/C [5]: 95.3% | viability, T/C [6]: 73.4% | viability, T/C [7]: 23.3% | viability, T/C [8]: 20.2% | viability, T/C [9]: 21.5% | viability, T/C [10]: 17.8% | viability, T/C [11]: 19.6% | viability, T/C [12]: 22.7% | viability, T/C [13]: 6.01% | viability, T/C [14]: 6.73% | viability, T/C [15]: 4.24% | viability, T/C [16]: 5.77% | viability, T/C [17]: 7.13% | viability, T/C [18]: 5.44% | viability, T/C [19]: 3.23% | viability, T/C [20]: 2.22% | viability, T/C [21]: 3.19% | viability, T/C [22]: 1.9% | viability, T/C [23]: 2.85% | viability, T/C [24]: 4.06%
